Experimental data taken from the NIST ThermoML archive (doi:10.1021/je901020a).

Key:
[1] = xn = mol fraction of the nth substance listed; settings: 101 kPa, Liquid; for speed of sound: Pulse-echo method
[2] = refractive index (Na D-line) (dimensionless); xn = mol fraction of the nth substance listed; settings: 101 kPa, Liquid, Standard Abbe refractometry

C1CCCC1 [cyclopentane] + Cc1cccc(C)c1
Settings	mass density, [1] [kg/m3]	refractive index, [2]	speed of sound, [1] [m/s]
298.15 K, x1 = 0.0391	856.1	1.49183	1315
298.15 K, x1 = 0.0908	851.1	1.48818	1308
298.15 K, x1 = 0.1894	841.2	1.48065	1296
298.15 K, x1 = 0.2859	831.2	1.47341	1284
298.15 K, x1 = 0.3868	820.1	1.46504	1272
298.15 K, x1 = 0.4808	809.2	1.45745	1260
298.15 K, x1 = 0.6394	789.8	1.44242	1241
298.15 K, x1 = 0.6923	782.9	1.43668	1235
298.15 K, x1 = 0.7909	769.7	1.42686	1224
298.15 K, x1 = 0.8952	755	1.41504	1214
298.15 K, x1 = 0.9514	746.9	1.40888	1208
298.15 K, x1 = 1	740	1.40292	1204
313.15 K, x1 = 0.0431	842.9	1.48387	1253
313.15 K, x1 = 0.0812	839.2	1.48096	1248
313.15 K, x1 = 0.1859	828.6	1.47303	1234
313.15 K, x1 = 0.2864	818	1.46521	1220
313.15 K, x1 = 0.3348	812.6	1.46128	1213
313.15 K, x1 = 0.4741	796.4	1.44893	1194
313.15 K, x1 = 0.5747	784.1	1.43989	1181
313.15 K, x1 = 0.6933	768.8	1.42834	1166
313.15 K, x1 = 0.7932	755.2	1.4181	1153
313.15 K, x1 = 0.8961	740.5	1.4067	1141
313.15 K, x1 = 0.9472	733	1.40122	1135
313.15 K, x1 = 1	725	1.39456	1130

Cc1ccc(C)cc1 [1,4-dimethylbenzene] + C1CCCCCCC1
x2 = 0
Settings	mass density, [1] [kg/m3]	refractive index, [2]	speed of sound, [1] [m/s]
298.15 K	856.6	1.49312	1310
313.15 K	843.5	1.48444	1248

Cc1ccc(C)cc1 [1,4-dimethylbenzene] + C1CCCC1
x2 = 0
Settings	mass density, [1] [kg/m3]	refractive index, [2]	speed of sound, [1] [m/s]
298.15 K	856.6	1.49312	1310
313.15 K	843.5	1.48444	1248

CC1CCCCC1 [methylcyclohexane] + Cc1cccc(C)c1
x1 = 1
Settings	mass density, [1] [kg/m3]	refractive index, [2]	speed of sound, [1] [m/s]
298.15 K	765	1.42062	1215
313.15 K	751.9	1.41274	1150

C1CCCC1 [cyclopentane] + Cc1ccc(C)cc1
Settings	mass density, [1] [kg/m3]	refractive index, [2]	speed of sound, [1] [m/s]
298.15 K, x1 = 0.0462	852.5	1.49015	1305
298.15 K, x1 = 0.0885	848.7	1.48707	1300
298.15 K, x1 = 0.1848	839.6	1.48001	1289
298.15 K, x1 = 0.2886	829.3	1.47236	1277
298.15 K, x1 = 0.3869	818.8	1.46445	1266
298.15 K, x1 = 0.4744	809	1.45737	1256
298.15 K, x1 = 0.5886	795.1	1.44669	1244
298.15 K, x1 = 0.6913	782.2	1.4372	1233
298.15 K, x1 = 0.7923	768.9	1.42618	1223
298.15 K, x1 = 0.8935	755	1.41575	1213
298.15 K, x1 = 0.9471	747.4	1.40916	1208
298.15 K, x1 = 1	740	1.40292	1204
313.15 K, x1 = 0.0443	839.7	1.48224	1243
313.15 K, x1 = 0.0981	834.8	1.47862	1236
313.15 K, x1 = 0.2012	824.7	1.47117	1224
313.15 K, x1 = 0.2998	814.5	1.46343	1211
313.15 K, x1 = 0.3542	808.5	1.4589	1204
313.15 K, x1 = 0.4799	794.3	1.44816	1189
313.15 K, x1 = 0.6021	779.4	1.43702	1173
313.15 K, x1 = 0.703	766.4	1.42761	1161
313.15 K, x1 = 0.8072	752.3	1.41693	1149
313.15 K, x1 = 0.909	737.9	1.4057	1138
313.15 K, x1 = 0.9601	730.6	1.39936	1133
313.15 K, x1 = 1	725	1.39456	1130
